Drawing on ChEMBL document CHEMBL3507680, “University of Dundee, Gates Library screen for HepG2 cell viability”, this text covers cytotoxicity for 98 compounds.

Molecules are shown by their SMILES.

A short description of this series: Human HepG2 cell viability assay in 384 well format. Format: toxicity, cell-based. As to conditions: HepG2 cells, read-out: Inhibition. Also on record: dose 125 nL, time 70.5 hour; concentration not given beside the values.

`Cc1c(CN2CCC(C(=O)O)(n3cccn3)CC2)oc2ccccc12`: the cytotoxicity at 70.5 h is -2.29%.

Turning to `Cc1cc(C)nc(N(C)CCN(C)C2CCCC2)n1`, the cytotoxicity at 70.5 h is -6.11%.

Regarding `CC(C)Cc1cc(CNc2nc(-c3cccnc3)nc3c2CNC3)no1`, the cytotoxicity at 70.5 h is -15.7%.

On to `Cc1nc(O)cc(C2CCCN(C(=O)c3cccc(N(C)C)c3)C2)n1` (stereo not drawn), for which the cytotoxicity at 70.5 h was found to be 5.24%.

Turning to `CCOc1ccc(CN(CCOC)c2nc(C)nc3oc(C)nc23)cc1`, the cytotoxicity at 70.5 h was -12.6%.

As to `CCc1cn[nH]c1C1CCCN(C(=O)c2cc(C(C)C)on2)C1` (stereo not drawn), the cytotoxicity at 70.5 h is -2.01%.

For `CN(C)CCN1CC(C(=O)NCc2cccc(-n3cccn3)c2)CC1=O` (stereo not drawn), the cytotoxicity at 70.5 h was -0.603%.

Turning to `COc1ccccc1CN1C(=O)O[C@@H]2CN(Cc3cccc(C)n3)C[C@@H]21`, the cytotoxicity at 70.5 h is 20.9%.

With `Cc1ccncc1-n1cc(CCO)cn1`, the cytotoxicity at 70.5 h is -5.86%.

Regarding `O=C1CCCN1c1cccc(N2CCC(NCCc3cscn3)CC2)c1`, the cytotoxicity at 70.5 h is -4.03%.

Consider `CN(C)C(=O)c1ccc2c(c1)N(C)C(CC(=O)NCCOCCO)CO2` (stereo not drawn), for which the cytotoxicity at 70.5 h worked out at 12.2%.

On to `O=C(c1cccc(C2CCNC2)c1)N1CCC(c2ccncc2)CC1` (stereo not drawn), for which the cytotoxicity at 70.5 h was -18.3%.

On to `Cc1ccc(C(=O)N2CC(Oc3ccccc3C)C2)s1`, for which the cytotoxicity at 70.5 h is -12.1%.

Turning to `CN1CCN(C(=O)N2C[C@H]3CC[C@@H]2CN(Cc2ccccc2)C3)CC1`, the cytotoxicity at 70.5 h was -18.1%.

For the compound `COc1ccc(CN(C)C2CSCCSC2)c2cccnc12`, the cytotoxicity at 70.5 h was -6.62%.

For the compound `Cc1cc(C)cc(-c2cc(C3CCOC3)c(C#N)c(N)n2)c1` (stereo not drawn), the cytotoxicity at 70.5 h came out at 12.8%.

For the compound `Cn1ccnc1CN1C[C@@H](CN2CCCCCC2)[C@@H](CO)C1`, the cytotoxicity at 70.5 h worked out at 1.19%.

On to `CCc1[nH]c2c(CNC(=O)C3CCC(=O)NC3)cc(C)cc2c1C` (stereo not drawn), for which the cytotoxicity at 70.5 h is -9.39%.

On to `CN(CCCc1ccccc1)C(=O)c1ccccc1NCC(=O)O`, for which the cytotoxicity at 70.5 h is -13.3%.

As to `Cc1cc(C(=O)N2CCc3c(ncnc3N3CCOCC3)C2)[nH]n1`, the cytotoxicity at 70.5 h was -1.64%.

Turning to `Cc1nc(C)c(C)c(N2CCC(O)(c3ccc(F)cc3)CC2)n1`, the cytotoxicity at 70.5 h was -6.02%.

Regarding `CCN(CC)C(=O)c1ccc(Cl)c(NC(=O)c2cc(C(C)C)on2)c1`, the cytotoxicity at 70.5 h was -12.4%.

Regarding `COCCC1(C(=O)O)CCCN(Cc2cc3c(cc2C)OCO3)C1` (stereo not drawn), the cytotoxicity at 70.5 h is -2.46%.

On to `CSc1ccc2c(C)cc(N[C@@H](C)CO)nc2c1`, for which the cytotoxicity at 70.5 h worked out at 23.3%.

On to `CC(Cn1cncn1)NCCN1CCc2ccccc2C1` (stereo not drawn), for which the cytotoxicity at 70.5 h was -6.48%.

On to `CC(C)NS(=O)(=O)c1cc(C(=O)O)cc(-c2ccc3c(c2)OCO3)c1`, for which the cytotoxicity at 70.5 h is -9.21%.

Turning to `Cc1nc(O)cc(CCNC(=O)c2ccc(CN3CCCCC3)cc2)n1`, the cytotoxicity at 70.5 h was 0.488%.

For `Nc1cnc(-c2cccc3ccnn23)cn1`, the cytotoxicity at 70.5 h worked out at 14.2%.

Consider `Cc1ccc(OC2(C(=O)NC(C)c3csc(C)n3)CCNCC2)cc1` (stereo not drawn), for which the cytotoxicity at 70.5 h came out at 22.5%.

As for `C=C(C)COc1ccc(C(=O)NCC2CC(CC)=NO2)cc1` (stereo not drawn), the cytotoxicity at 70.5 h was -15.2%.

Consider `CN(Cc1ccsc1)Cc1nc(-c2cnccn2)no1`, for which the cytotoxicity at 70.5 h is -6.12%.

For `CN(C)C(C(=O)NCCS(=O)(=O)N(C)C)c1cccc(F)c1` (stereo not drawn), the cytotoxicity at 70.5 h came out at 8.21%.

Regarding `O=C(Nc1nncs1)N1CCC(CCO)CC1`, the cytotoxicity at 70.5 h was -7.1%.

As for `Cc1ccc(-n2cc(CN3CCOCC(CN(C)C)C3)cn2)cc1C` (stereo not drawn), the cytotoxicity at 70.5 h was 37.2%.

Turning to `Cc1nc(CCN)cc(N2CCCN(C(=O)c3ccco3)CC2)n1`, the cytotoxicity at 70.5 h is -4.43%.

For the compound `CC(C)Cc1nc(CS(C)(=O)=O)n(-c2ccccn2)n1`, the cytotoxicity at 70.5 h was -7.54%.

As to `Cc1ccnn1CC(=O)N(C)Cc1cnn(-c2ccccc2)c1`, the cytotoxicity at 70.5 h is -1.98%.

As to `Nc1ncc(CN2C[C@H](C3CC3)[C@@H](N)C2)cn1`, the cytotoxicity at 70.5 h was -5.66%.

Take `CN(C)c1ncc(CN2CCCC(Nc3ccc4c(c3)OCCO4)C2)s1` (stereo not drawn): the cytotoxicity at 70.5 h is -12.3%.

Regarding `Cc1cc(C)c2[nH]c(=O)c(CN3CCCC(O)(CO)C3)cc2c1` (stereo not drawn), the cytotoxicity at 70.5 h is -13.5%.

For `COc1ccc(-n2cccn2)c(CN2CCC3(CCNCC3)C2)c1`, the cytotoxicity at 70.5 h is -9.48%.

Turning to `Cc1cccc(OC2(C(=O)O)CCN(C(=O)CCc3ccco3)CC2)c1`, the cytotoxicity at 70.5 h worked out at 30.3%.

For the compound `Cc1ccccc1N1CCN(C(=O)c2ncc(F)cc2F)C(C)C1` (stereo not drawn), the cytotoxicity at 70.5 h is -3.38%.

Consider `COc1cccc(-c2ncc(CN3CC[C@H](CO)[C@@H](O)C3)s2)c1`, for which the cytotoxicity at 70.5 h is -20.8%.

Turning to `O=C(c1cc(F)cc(Cl)c1)N1C[C@@H]2CC[C@H](C1)N(Cc1ccccc1)C2`, the cytotoxicity at 70.5 h was -3.75%.

For the compound `Cc1ccccc1N1CCCN(C(=O)CCc2cccnc2)CC1`, the cytotoxicity at 70.5 h was found to be 0.239%.

For `CCNC(=O)[C@@H]1C[C@H](N)CN1C(=O)c1c[nH]c2ccccc12`, the cytotoxicity at 70.5 h was -0.954%.

Regarding `O=C(O)C1(Oc2ccc3ccccc3c2)CCN(c2ccncc2)CC1`, the cytotoxicity at 70.5 h is 21.4%.

Regarding `C=C(C)COc1cccc(C(=O)N(C)C(C)c2ccncn2)c1` (stereo not drawn), the cytotoxicity at 70.5 h was -7.56%.

With `Cc1cc(C)cc(CN2CCN(C(=O)CCc3n[nH]c(C)n3)CC2=O)c1`, the cytotoxicity at 70.5 h was 22.5%.

Consider `CCCOc1ccc(OCCN2CCOCS2(=O)=O)cc1`, for which the cytotoxicity at 70.5 h is -10.3%.

In the case of `CN(Cc1cc2cc(F)ccc2[nH]1)C(=O)C1CC(=O)N(C2CCCC2)C1` (stereo not drawn), the cytotoxicity at 70.5 h was -4.53%.

For the compound `O=C(NCC1CCCO1)c1coc(Cn2cnc3ccccc32)n1` (stereo not drawn), the cytotoxicity at 70.5 h was -4.46%.

Consider `CC(=O)NCCc1nc(C(C)C)nn1-c1ccncc1C`, for which the cytotoxicity at 70.5 h was -14.7%.

Take `COCC(=O)N1CCc2cccc(S(=O)(=O)N3CCOCC3)c2C1`: the cytotoxicity at 70.5 h is -6.37%.

For `CN(CCc1ccccn1)C(=O)CCC1CCCN(c2ccncc2)C1` (stereo not drawn), the cytotoxicity at 70.5 h is 0%.

In the case of `CCSCCn1cc(-c2nccs2)nn1`, the cytotoxicity at 70.5 h is -9.08%.

`COc1cccc(-c2cccc(-c3ccn(CC4COCCO4)n3)c2)n1` (stereo not drawn): the cytotoxicity at 70.5 h was found to be 13.1%.

For the compound `CSCCCN1C[C@H](NC(=O)c2cc(C3CC3)on2)[C@@H](C2CC2)C1`, the cytotoxicity at 70.5 h was -7.58%.

As for `O=C(NCCn1ccnc1-c1cc2n(n1)CCCNC2)c1ccncc1`, the cytotoxicity at 70.5 h was -2.02%.

With `COc1ccc(N2CCC(N3C[C@H](NC(C)=O)[C@@H](C(C)C)C3)CC2)cc1`, the cytotoxicity at 70.5 h is -7.18%.

Turning to `Cc1noc(-c2ccc(N(C)Cc3ccncc3C)nc2)n1`, the cytotoxicity at 70.5 h is -5.41%.

On to `COC(=O)N1CCCCC1C(=O)N1CCN(c2ncccc2C)CC1` (stereo not drawn), for which the cytotoxicity at 70.5 h was -1.8%.

Consider `CN(Cc1cc2n(n1)CCCNC2)Cc1ccno1`, for which the cytotoxicity at 70.5 h is -5.8%.

Regarding `Cc1cc(C)n2nc(C(=O)N3CCCC4(CCOC4)C3)cc2n1` (stereo not drawn), the cytotoxicity at 70.5 h is -10.3%.

On to `Cc1nc(C(=O)N2CCC(c3nnc(Cn4ccnc4)n3C)CC2)cs1`, for which the cytotoxicity at 70.5 h was -8.64%.

For the compound `CN(C)Cc1nnc(C2CCCN(Cc3ccc(Cl)s3)C2)n1C` (stereo not drawn), the cytotoxicity at 70.5 h came out at 5.14%.

`CN(C)C(=O)c1cn2cc(-c3ccccc3Cl)n(CC3CC3)c(=O)c2n1`: the cytotoxicity at 70.5 h was -3.22%.

`CCC1CN(C(=O)c2cccc(O)c2)CCC(=O)N1Cc1ccccc1` (stereo not drawn): the cytotoxicity at 70.5 h was 0.303%.

Take `Cn1cc(CN2CCCC(CCc3c(F)cccc3F)C2)cn1` (stereo not drawn): the cytotoxicity at 70.5 h worked out at 1.58%.

Take `CCn1ccnc1CNC1CC(=O)N(CCc2cccc(Cl)c2)C1` (stereo not drawn): the cytotoxicity at 70.5 h is -2.81%.

As for `COc1ccc(-c2n[nH]cc2CN(C)CCC2CCOCC2)cc1F`, the cytotoxicity at 70.5 h was -1.66%.

`O=C(CC1CCc2ccccc21)NC1(C(=O)O)CCCC1` (stereo not drawn): the cytotoxicity at 70.5 h is 22.9%.

Turning to `COc1cccc(CCn2ccnc2-c2cn(C3CCNCC3)nn2)c1`, the cytotoxicity at 70.5 h worked out at 28.6%.

As to `CCCc1nccn1-c1ccc(C(O)CN2CCOCC2)cc1` (stereo not drawn), the cytotoxicity at 70.5 h worked out at 27.6%.

In the case of `CCn1c(CC2CCN(C(=O)c3ccnn3C)CC2)n[nH]c1=O`, the cytotoxicity at 70.5 h was -6.64%.

As for `O=C1N(Cc2ccc(F)cc2)CCCC12CCN(C1CCSCC1)C2` (stereo not drawn), the cytotoxicity at 70.5 h was -6%.

Take `O=C(C1CCCC1)N1CC[C@]2(O)CCN(Cc3ncccn3)C[C@@H]2C1`: the cytotoxicity at 70.5 h is -3.12%.

Consider `O=C(CCc1cc2n(n1)CCCN(C(=O)[C@H]1CCCO1)C2)NC1CC1`, for which the cytotoxicity at 70.5 h came to 3.28%.

For `COc1ccc(OC)c(C2CCN(C3CCOCC3)C2)c1` (stereo not drawn), the cytotoxicity at 70.5 h came to 6.32%.

With `CCOc1ccccc1C(=O)N1CCCC(O)(CN(C)C)C1` (stereo not drawn), the cytotoxicity at 70.5 h was determined as 11.6%.

Take `Cc1nc(CN2CCN(C(=O)COc3c(C)ccc(C)c3C)CC2)no1`: the cytotoxicity at 70.5 h is -4.73%.

Consider `Cc1ccc(NC(=O)[C@@H]2C[C@H](C(=O)O)CN(Cc3sccc3C)C2)cn1`, for which the cytotoxicity at 70.5 h turned out to be 18.3%.

Regarding `OC1CCN(c2ccnc(NCCc3ccccc3Cl)n2)C1` (stereo not drawn), the cytotoxicity at 70.5 h is -3.46%.

In the case of `N#Cc1cccc(N2CCC3(CC2)Nc2ccccc2NC3=O)n1`, the cytotoxicity at 70.5 h is -5.8%.

In the case of `CCn1c(N)nc2cc(C(=O)NCCc3ccncc3)cnc21`, the cytotoxicity at 70.5 h was -13.4%.

Take `O=C1CCCN1Cc1nc(-c2ccsc2)no1`: the cytotoxicity at 70.5 h was found to be 19.8%.

For the compound `Cc1nc(N2CCC(O)(c3ccc(F)cc3)CC2)c2c(C)nn(C)c2n1`, the cytotoxicity at 70.5 h is -3.16%.

With `CS(=O)(=O)N1CCC(NCC2(N3CCOCC3)CCCCC2)CC1`, the cytotoxicity at 70.5 h was -12.3%.

`O=C(NCC1CCCO1)Nc1nnc(C(F)(F)F)s1` (stereo not drawn): the cytotoxicity at 70.5 h was -15.8%.

With `c1cncc(-n2cnnc2CC2CCNCC2)c1`, the cytotoxicity at 70.5 h is -0.719%.

As for `COc1cc(F)c(CN2CCN(CC(C)C)C(=O)C2C)cc1OC` (stereo not drawn), the cytotoxicity at 70.5 h was -1.44%.

In the case of `CC(=O)N1CCc2c(nc(N(C)C)nc2NCc2cccs2)C1`, the cytotoxicity at 70.5 h is -4.81%.

With `COc1cc(CN2CCCC23CCN(c2ccccn2)CC3)ccc1F`, the cytotoxicity at 70.5 h was -0.0865%.

Take `CNc1ncc(CN(C)Cc2cc3n(n2)CCNC3)cn1`: the cytotoxicity at 70.5 h is -9%.

In the case of `Cc1ccc(CN2CCN(Cc3ccc4nonc4c3)CC2=O)cc1`, the cytotoxicity at 70.5 h is 1.65%.

In the case of `CCOc1cc(CN2CCCC2)ccc1Oc1cccc(C#N)n1`, the cytotoxicity at 70.5 h was -1.2%.

`COCCc1noc(CN(C)c2nc(C)cc(C)n2)n1`: the cytotoxicity at 70.5 h is -9.27%.
